Laboratory results reported in patent US7531557B2, “Diaryl ethers as opioid receptor antagonists” (Eli Lilly and Company, priority 2002, dated 2009).

Assays:
[1] = tested on: Diet Induced Obese Rat; assay: Indirect calorimetry assay (food consumption, energy balance); format: in vivo; details: for Energy Balance Diet Induced Obese Rat: test dose 3 mg/kg, energy balance = caloric intake minus utilization
Method: Indirect Calorimetry Assay
Twenty-four-hour energy expenditure (EE) and respiratory quotient (RQ) were measured by indirect calorimetry using an open circuit calorimetry system (Oxymax, Columbus Instruments Int. Corp., USA). RQ is the ratio of the volume of CO2 produced (VCO2) to the volume of O2 consumed (VO2). EE was calculated as the product of calorific value of oxygen (CV) and VO2 per kilogram of body weight, where CV=3.815+1.232 (RQ). Total calories expended were calculated to determine daily fuel utilization. To calculate the proportion of protein, fat and carbohydrate that is used during that 24-hour period, we used Flatt's proposal (see, Flatt J P 1991 Assessment of daily and cumulative carbohydrate and fat balances in mice. J Nutr Biochem 2:193-202.) and formulae as well as other derived constants (see Elia M, Livesey G 1992 Energy expenditure and fuel selection in biological systems: the theory and practice of calculations based on indirect calorimetry and tracer methods. World Rev Nutr Diet 70:68-131.). Food consumption over the 24-hour period was also measured. […] Results obtained for a sample of compounds of the invention with the indirect calorimetry assay are shown below in Table 4.

[2] = former clinical trial candidate, development discontinued; cited from earlier work
[3] = tested on: dietary induced obese rats; details: cited from earlier work
[4] = tested on: mu, delta and kappa receptors in rat striatum/nucleus accumbens; assay: Ex-vivo receptor binding of 3H-diprenorphine in rat brain after oral dosing; details: 7 mg/kg p.o., 6 hours after administration, striatum/nucleus accumbens homogenate, versus vehicle
[5] = tested on: Rat; assay: Acute feeding assay (Rat Obesity assay); format: in vivo
Text: Acute Feeding Assay (Rat Obesity Assay)
The efficacy of compounds of the present invention has been further verified by the results of a Rat Obesity assay shown in Table 3.

Compound | minimal effective dose ([1]; Rattus norvegicus, po, lowest dose with food consumption over 24 hours significantly different from vehicle, read-out: Inhibition of Feeding Diet Induced Obese Rat Minimum Effective Dose (MED)) [mg/kg] | Energy Balance Diet Induced Obese Rat ([1]; p.o.) [kcal/kg/day] | human oral bioavailability [2] | energy balance and total body mass ([3]; chronic treatment, dietary induced obese rats fed a high fat diet) | food intake ([3]; oral administration, acute and chronic treatment in rats) | Ex Vivo Binding [3H]-Diprenorphine % Inhibition of at 6 hours 7 mg/kg of test compound [4] [%] | Doses in ug/kg to achieve effective inhibition [5] [µg/kg] | Inhibition of Feeding Diet Induced Obese Rat Minimum Effective Dose (MED) ([1]; p.o., lowest dose with food consumption over 24 hours significantly different from vehicle) [mg/kg]
C[C@H]1CN(CC[C@H](O)C2CCCCC2)CC[C@@]1(C)c1cccc(O)c1 [LY255582, reference compound] | 1 | -36 | lack of satisfactory human oral bioavailability | sustained negative energy balance leading to a decrease in total body mass | robust reductions in food intake | >40 | – | –
4-(4-Pentylaminomethyl-phenoxy)-benzamide [Example 290] | – | -65 | – | – | – | – | 3 | 3
